Results taken from ChEMBL document CHEMBL3877252, “Fluorescein hydrazones: A series of novel non-intercalative topoisomerase IIα catalytic inhibitors induce G1 arrest and apoptosis in breast and colon cancer cells” (Eur J Med Chem, 2017).
Structures can show the parent of a compound that is named as a salt.

What was measured:
[1] = target: T1, DNA topoisomerase 1 (Homo sapiens) (UniProt P11387); test: Inhibition of human topoisomerase-1 assessed as inhibition of relaxation of supercoiled pBR322 plasmid DNA at 100 uM measured after 1 hr by ethidium bromide staining based agarose gel electrophoresis relative to control
T1 sequence (whole entry): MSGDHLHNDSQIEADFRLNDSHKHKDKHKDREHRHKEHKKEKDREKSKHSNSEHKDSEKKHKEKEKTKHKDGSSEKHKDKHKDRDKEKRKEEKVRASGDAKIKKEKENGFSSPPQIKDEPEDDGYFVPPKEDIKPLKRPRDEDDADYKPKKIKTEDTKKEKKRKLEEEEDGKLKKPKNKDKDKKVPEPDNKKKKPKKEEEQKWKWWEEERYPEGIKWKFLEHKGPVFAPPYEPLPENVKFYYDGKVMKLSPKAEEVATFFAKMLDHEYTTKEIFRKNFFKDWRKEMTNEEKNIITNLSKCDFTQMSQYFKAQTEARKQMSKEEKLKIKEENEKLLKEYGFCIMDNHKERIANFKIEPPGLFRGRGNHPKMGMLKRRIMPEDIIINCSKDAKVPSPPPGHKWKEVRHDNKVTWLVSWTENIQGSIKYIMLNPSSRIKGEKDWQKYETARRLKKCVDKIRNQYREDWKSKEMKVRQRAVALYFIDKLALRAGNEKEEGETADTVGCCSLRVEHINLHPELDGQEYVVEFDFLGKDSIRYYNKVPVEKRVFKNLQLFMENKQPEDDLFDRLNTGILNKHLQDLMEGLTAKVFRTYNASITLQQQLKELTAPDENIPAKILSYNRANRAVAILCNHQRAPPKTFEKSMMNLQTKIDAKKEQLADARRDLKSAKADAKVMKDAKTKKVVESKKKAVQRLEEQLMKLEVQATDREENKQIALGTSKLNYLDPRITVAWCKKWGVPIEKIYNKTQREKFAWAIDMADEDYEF

[2] = target: DNA topoisomerase 2-alpha (Homo sapiens) (UniProt P11388); test: Inhibition of human topoisomerase-2 alpha assessed as inhibition of relaxation of supercoiled pBR322 plasmid DNA at 100 uM measured after 1 hr by ethidium bromide staining based agarose gel electrophoresis relative to control
Chain of DNA topoisomerase 2-alpha (Homo sapiens) (P11388 whole entry): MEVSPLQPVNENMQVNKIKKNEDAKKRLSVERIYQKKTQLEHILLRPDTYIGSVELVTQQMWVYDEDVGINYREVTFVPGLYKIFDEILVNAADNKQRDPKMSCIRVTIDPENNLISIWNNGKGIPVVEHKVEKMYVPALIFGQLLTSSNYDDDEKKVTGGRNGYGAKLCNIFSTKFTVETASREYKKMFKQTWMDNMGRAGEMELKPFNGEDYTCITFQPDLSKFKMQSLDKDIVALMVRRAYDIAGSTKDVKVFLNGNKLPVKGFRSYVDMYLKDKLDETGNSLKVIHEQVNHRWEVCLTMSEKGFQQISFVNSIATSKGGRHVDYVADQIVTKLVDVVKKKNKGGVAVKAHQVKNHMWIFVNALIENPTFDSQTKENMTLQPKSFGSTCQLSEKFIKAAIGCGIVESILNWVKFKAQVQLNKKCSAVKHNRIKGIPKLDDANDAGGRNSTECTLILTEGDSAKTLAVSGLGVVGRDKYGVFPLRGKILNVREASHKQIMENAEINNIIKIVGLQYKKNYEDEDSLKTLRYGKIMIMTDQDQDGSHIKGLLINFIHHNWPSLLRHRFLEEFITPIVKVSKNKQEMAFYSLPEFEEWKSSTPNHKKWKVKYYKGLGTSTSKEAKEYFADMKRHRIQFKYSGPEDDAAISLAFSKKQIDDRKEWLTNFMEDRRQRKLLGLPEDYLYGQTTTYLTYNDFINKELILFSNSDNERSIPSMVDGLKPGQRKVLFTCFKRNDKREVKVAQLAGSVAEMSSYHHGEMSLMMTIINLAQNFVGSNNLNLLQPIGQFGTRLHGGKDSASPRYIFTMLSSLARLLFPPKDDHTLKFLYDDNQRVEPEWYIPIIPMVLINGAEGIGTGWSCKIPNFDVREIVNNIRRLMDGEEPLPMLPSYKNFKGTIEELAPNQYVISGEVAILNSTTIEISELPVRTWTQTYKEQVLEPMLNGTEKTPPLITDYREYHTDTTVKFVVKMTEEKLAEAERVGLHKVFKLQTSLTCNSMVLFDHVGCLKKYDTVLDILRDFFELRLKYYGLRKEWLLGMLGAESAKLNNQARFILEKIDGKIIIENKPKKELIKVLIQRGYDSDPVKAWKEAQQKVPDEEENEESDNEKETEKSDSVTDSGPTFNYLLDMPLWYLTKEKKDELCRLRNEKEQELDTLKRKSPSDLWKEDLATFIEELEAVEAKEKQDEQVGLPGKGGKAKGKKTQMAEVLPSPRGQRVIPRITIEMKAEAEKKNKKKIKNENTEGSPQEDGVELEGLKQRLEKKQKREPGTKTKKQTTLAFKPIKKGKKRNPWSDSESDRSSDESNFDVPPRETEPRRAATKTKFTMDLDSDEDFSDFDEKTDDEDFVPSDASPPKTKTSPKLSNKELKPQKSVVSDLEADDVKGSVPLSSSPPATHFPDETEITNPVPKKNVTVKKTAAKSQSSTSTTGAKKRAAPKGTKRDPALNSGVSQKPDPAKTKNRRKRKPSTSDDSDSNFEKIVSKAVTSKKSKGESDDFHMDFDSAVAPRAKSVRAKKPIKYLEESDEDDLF

[3] = target: DNA topoisomerase 2-alpha (Homo sapiens) (UniProt P11388); test: Inhibition of human topoisomerase-2 alpha assessed as inhibition of relaxation of supercoiled pBR322 plasmid DNA at 20 uM measured after 1 hr by ethidium bromide staining based agarose gel electrophoresis relative to control
[4] = Antiproliferative activity against human T47D cells measured after 72 hrs by CCK8 assay; type: functional, cell-based
[5] = Antiproliferative activity against human DU145 cells measured after 72 hrs by CCK8 assay; type: functional, cell-based; conditions: DU-145, 72 h
[6] = Antiproliferative activity against human HCT15 cells measured after 72 hrs by CCK8 assay; type: functional, cell-based; conditions: HCT-15, 72 h
[7] = Antiproliferative activity against human MCF7 cells measured after 72 hrs by CCK8 assay; type: functional, cell-based; conditions: MCF7, 72 h
[8] = target: T1, DNA topoisomerase 1 (Homo sapiens); test: Inhibition of human topoisomerase-1 assessed as inhibition of relaxation of supercoiled pBR322 plasmid DNA at 20 uM measured after 1 hr by ethidium bromide staining based agarose gel electrophoresis relative to control

Row | SMILES | inhibition [1] | inhibition [2] | inhibition [3] | IC50 [4] | IC50 [5] | IC50 [6] | IC50 [7] | inhibition [8]
1 | CCOc1ccc2c(c1)Oc1cc(O)ccc1C21c2ccccc2C(=O)N1/N=C/c1ccc(Cl)cc1Cl (centres undefined) | 12.3% | 80% | 2.3% | > 50 µM | > 50 µM | 3.17 µM | 23.2 µM | 
2 | COc1cccc2c1C(=O)c1c(O)c3c(c(O)c1C2=O)C[C@@](O)(C(=O)CO)C[C@@H]3O[C@H]1C[C@H](N)[C@H](O)[C@H](C)O1 [DOXORUBICIN HYDROCHLORIDE] |  |  |  | 1.5 µM | 1.59 µM | 0.74 µM |  | 
3 | CCOc1ccc2c(c1)Oc1cc(OC(=O)c3ccccc3Cl)ccc1C21c2ccccc2C(=O)N1/N=C/c1ccccc1[N+](=O)[O-] (centres undefined) | 39.8% | 5.4% |  | 7.75 µM | > 50 µM | 47 µM | > 50 µM | 0%
4 | CCOc1ccc2c(c1)Oc1cc(OC(=O)c3ccccc3)ccc1C21c2ccccc2C(=O)N1/N=C/c1cccc(OC(=O)c2ccccc2)c1 (centres undefined) | 0% | 6.7% |  | > 50 µM | > 50 µM | 28.9 µM | > 50 µM | 
5 | CCOc1ccc2c(c1)Oc1cc(OC(=O)c3ccccc3OC)ccc1C21c2ccccc2C(=O)N1/N=C/c1ccccc1OC(=O)c1ccccc1OC (centres undefined) | 0% | 10.3% |  | 6.22 µM | > 50 µM | 1.56 µM | > 50 µM | 
6 | CCOc1ccc2c(c1)Oc1cc(OC(=O)c3ccccc3[N+](=O)[O-])ccc1C21c2ccccc2C(=O)N1/N=C/c1ccc(Cl)cc1Cl (centres undefined) | 98% | 83.8% | 2.9% | > 50 µM | 6.74 µM | 6.25 µM | > 50 µM | 77%
7 | CCOc1ccc2c(c1)Oc1cc(O)ccc1C21c2ccccc2C(=O)N1/N=C/c1ccc(OC)c(O)c1 (centres undefined) | 77.8% | 37.9% | 2.7% | 1.61 µM | 1.93 µM | 0.29 µM | 3.64 µM | 4.2%
8 | CCOc1ccc2c(c1)Oc1cc(O)ccc1C21c2ccccc2C(=O)N1/N=C/c1ccc(O)cc1 (centres undefined) | 36.5% | 73.8% | 3.3% | 0.78 µM | 1.06 µM | 0.03 µM | 4.66 µM | 0%
9 | CCOc1ccc2c(c1)Oc1cc(OC(=O)c3ccccc3OC)ccc1C21c2ccccc2C(=O)N1/N=C/c1ccc(OC(=O)c2ccccc2OC)cc1 (centres undefined) | 0% | 11.4% |  | 44.8 µM | > 50 µM | > 50 µM | > 50 µM | 
10 | CCOc1ccc2c(c1)Oc1cc(OC(=O)c3ccccc3Cl)ccc1C21c2ccccc2C(=O)N1/N=C/c1ccc(Cl)cc1 (centres undefined) | 90.5% | 83.7% | 1.5% | > 50 µM | > 50 µM | 28.7 µM | > 50 µM | 36.4%
11 | CCOc1ccc2c(c1)Oc1cc(O)ccc1C21c2ccccc2C(=O)N1/N=C/c1ccc(OC)cc1 (centres undefined) | 0.8% | 65% | 3.6% |  |  |  |  | 
12 | CCOc1ccc2c(c1)Oc1cc(OC(=O)c3ccccc3[N+](=O)[O-])ccc1C21c2ccccc2C(=O)N1/N=C/c1ccc(OC)c(OC(=O)c2ccccc2[N+](=O)[O-])c1 (centres undefined) | 87.2% | 3.9% |  |  |  |  |  | 15.8%
13 | CCOc1ccc2c(c1)Oc1cc(OC(=O)c3ccccc3OC)ccc1C21c2ccccc2C(=O)N1/N=C/c1ccccc1OC (centres undefined) | 74% | 8.1% |  | 21.4 µM | > 50 µM | 1.92 µM | > 50 µM | 6.8%
14 | CCOc1ccc2c(c1)Oc1cc(OC(=O)c3ccccc3[N+](=O)[O-])ccc1C21c2ccccc2C(=O)N1/N=C/c1ccccc1OC(=O)c1ccccc1[N+](=O)[O-] (centres undefined) | 0% | 25.7% |  | 5.45 µM | > 50 µM | > 50 µM | > 50 µM | 
15 | CCOc1ccc2c(c1)Oc1cc(O)ccc1C21c2ccccc2C(=O)N1/N=C/c1ccccc1OC (centres undefined) | 28.1% | 58.3% | 3.3% | > 50 µM | > 50 µM | 0.67 µM | > 50 µM | 
16 | CCOc1ccc2c(c1)Oc1cc(O)ccc1C21c2ccccc2C(=O)N1/N=C/c1ccc(Cl)cc1 (centres undefined) | 22.7% | 81.6% | 1.3% | 5.74 µM | 2.3 µM | 2.19 µM | 9.77 µM | 
17 | CCOc1ccc2c(c1)Oc1cc(OC(=O)c3ccccc3[N+](=O)[O-])ccc1C21c2ccccc2C(=O)N1/N=C/c1ccc(OC)cc1 (centres undefined) | 54.6% | 6% |  |  |  |  |  | 3.5%
18 | CCOc1ccc2c(c1)Oc1cc(OC(=O)c3ccccc3)ccc1C21c2ccccc2C(=O)N1/N=C/c1ccc(Cl)cc1Cl (centres undefined) | 99.9% | 25.3% |  |  |  |  |  | 2.5%
19 | CCOc1ccc2c(c1)Oc1cc(OC(=O)c3ccccc3)ccc1C21c2ccccc2C(=O)N1/N=C/c1ccc(OC)cc1 (centres undefined) | 44.6% | 5.4% |  |  |  |  |  | 9.8%
20 | CC[C@@]1(O)C(=O)OCc2c1cc1n(c2=O)Cc2cc3ccccc3nc2-1 [CAMPTOTHECIN] |  |  |  | 0.59 µM | 0.38 µM | 0.35 µM | 4.54 µM | 
21 | CCOc1ccc2c(c1)Oc1cc(OC(=O)c3ccccc3OC)ccc1C21c2ccccc2C(=O)N1/N=C/c1ccc(OC)c(OC(=O)c2ccccc2OC)c1 (centres undefined) | 73.1% | 4.9% |  | 23.6 µM | > 50 µM | > 50 µM | > 50 µM | 13.9%
22 | CCOc1ccc2c(c1)Oc1cc(OC(=O)c3ccccc3)ccc1C21c2ccccc2C(=O)N1/N=C/c1ccccc1OC(=O)c1ccccc1 (centres undefined) | 73.2% | 21.5% |  | > 50 µM | > 50 µM | 8.29 µM | > 50 µM | 55.9%
23 | CCOc1ccc2c(c1)Oc1cc(OC(=O)c3ccccc3Cl)ccc1C21c2ccccc2C(=O)N1/N=C/c1ccccc1OC (centres undefined) | 55.2% | 7.8% |  | > 50 µM | 6.3 µM | > 50 µM | > 50 µM | 30%
